Assay results: patent publication US8378125B2, “Substance FKI-3864 and method for preparation thereof” (School Juridical Person Kitasato Institute, priority 2008, dated 2013)
Like-named read-outs stand apart in the source and are kept apart here.

Tests used:
[1] = tested on: synthesis of intracellular triacylglycerols; test: Inhibitory activity on the synthesis of intracellular triacylglycerols, [14C] oleic acid incorporation in CHO-K1 cells; assay type: cell-based, Chinese hamster; details: [1-14C] oleic acid, 6 hours incubation, read-out: IC50, inhibition of formation of [14C] triacylglycerols
Method: The inhibitory activity on the synthesis of intracellular triacylglycerols of substance FKI-3864 according to the invention was tested in the manner described below.
Chinese hamster ovary cells (CHO-K1 cells) adjusted to 5.0×10^5 cells/mL with HAMs F12 medium (10% FBS, containing Penicillin/Streptomycin) were distributed on a 48-well plate in aliquots of 250 μL.
Then, after the cells were incubated at 37° C. for 12 hours in a 5% carbon dioxide gas incubator to adhere the cells, substance FKI-3864 (2.5 μL as a methanol solution) and [1−^14C] oleic acid (5 μL, 1.85 kBq, 1 nmol) were added, and incubation was continued for additional 6 hours.
The supernatant of the culture was removed, and after 0.1% SDS-Tris/HCl (pH 7.5, 120 μL) was added for lysis of the cells, neutral fat in the cells was extracted by the Bligh & Dyer method. After the extract was concentrated, it was spotted on a TLC (silica gel plate, Merck, 0.5 mm in thickness) and developed with a solvent of hexane/diethyl ether/acetic acid (70:30:1, v/v/v), and the quantity of isolated [^14C] triacylglycerols was determined with BAS 2000 (Fuji Film).
Using the same manner as in Test 1, the inhibitory activities on the synthesis of intracellular triacylglycerols of substances FKI-3864-1 and FKI-3864-2 were measured. […] In addition, the activities of mixtures in which substances FKI-3864-1 and FKI-3864-2 were mixed at different ratios are shown in Table 2.

Solubility in solvents = assay type: physicochemical
Description: (7) Solubility in solvents: Soluble in methanol, chloroform, and ethyl acetate; insoluble in water.

## CCCCCC(O)CC(O)CC1Cc2cc3cc(OC)c(-c4c(OC)cc5cc6c(c(O)c5c4O)C(=O)OC(CC(O)CC(O)CCCCC)C6)c(O)c3c(O)c2C(=O)O1 (single isomer, unassigned) [FKI-3864-2]
[1]
  IC50: 540 nM
Solubility in solvents
  Solubility in solvents: methanol, chloroform, and ethyl acetate: Soluble
  Solubility in solvents: water: insoluble

## CCCCCC(O)CC(O)CC1Cc2cc3cc(OC)c(-c4c(OC)cc5cc6c(c(O)c5c4O)C(=O)OC(CC(O)CC(O)CCCCC)C6)c(O)c3c(O)c2C(=O)O1 (stereo not drawn) [FKI-3864]
[1]; Cricetulus griseus, CHO-K1, 6 h
  IC50: 93 nM
Solubility in solvents
  Solubility in solvents: methanol, chloroform, and ethyl acetate: Soluble
  Solubility in solvents: water: insoluble

## CCCCCC(O)CC(O)CC1Cc2cc3cc(OC)c(-c4c(OC)cc5cc6c(c(O)c5c4O)C(=O)OC(CC(O)CC(O)CCCCC)C6)c(O)c3c(O)c2C(=O)O1 (single isomer, unassigned) [FKI-3864-1]
[1]
  IC50: ≥ 12000 nM
Solubility in solvents
  Solubility in solvents: methanol, chloroform, and ethyl acetate: Soluble
  Solubility in solvents: water: insoluble
